The nature of experiment [1]: Antiproliferative activity against human mitoxantrone-sensitive HL60 cells. The experiment is classed as functional, cell-based. To be noted: HL-60.
A short description of experiment [2]: Antiproliferative activity against human mitoxantrone-resistant HL60/MX2 cells. The experiment is classed as functional, cell-based. To be noted: HL-60.
A short description of experiment [3]: Cytotoxicity against human HT-29 cells assessed as reduction in cell viability measured after 48 hrs by resazurin dye-based fluorometric analysis. Format: functional. To be noted: Homo sapiens, HT-29, 48 h.
Experiment [4] can be described thus: Cytotoxicity against human HT-29 cells assessed as reduction in cell viability measured after 48 hrs by resazurin dye-based fluorometric analysis relative to control. The experiment is classed as functional. (In general: Resazurin is reduced to fluorescent resorufin, in cell work by metabolically active cells.)
The subject of another experiment is HL-60. In words: Ratio of EC50 for human mitoxantrone-sensitive HL60 cells to EC50 for human mitoxantrone-resistant HL60/MX2 cells. The experiment is classed as functional.
Experiment [5] can be described thus: Cytotoxicity against human NCI-H292 cells assessed as reduction in cell viability measured after 48 hrs by resazurin dye-based fluorometric analysis. To be noted: NCI-H292, 48 h. The experiment is classed as functional.
The nature of experiment [6]: Antiproliferative activity against taxol-resistant human MES-SA/Dx5 cells expressing MDR1 mRNA and P-gp. Format: functional, cell-based.
For experiment [7], the target named is T1, Tubulin (Homo sapiens) (UniProt P68371+Q9H4B7+P0DPH7+P68366+Q13509+Q71U36+P04350+Q3ZCM7+P07437+P68363+Q9BQE3+Q6PEY2+Q13885+Q9BVA1+Q9BUF5). In words: Induction of microtubule depolymerization in HUVEC at 1.5 to 5 uM by turbidity spectroscopic analysis. The experiment is classed as cell-based.
The next experiment concerns MES-SA. In words: Ratio of EC50 for taxol-resistant human MES-SA/DX5 cells expressing MDR1 mRNA and P-gp to EC50 for taxol-sensitive human MES-SA cells. Format: functional.
Experiment [8] deals with T1, Tubulin (Homo sapiens). Description: Induction of microtubule depolymerization in HUVEC at 20 nM measured after 30 mins by DAPI-staining based immunofluorescence analysis. The experiment is classed as cell-based.
Experiment [9] is described as follows: Cytotoxicity against mouse B16F10 cells assessed as reduction in cell viability measured after 48 hrs by resazurin dye-based fluorometric analysis. The experiment is classed as functional. To be noted: B16-F10, 48 h.
A short description of experiment [10]: Cytotoxicity against human MDA-MB-231 cells assessed as reduction in cell viability measured after 48 hrs by resazurin dye-based fluorometric analysis. The experiment is classed as functional. To be noted: MDA-MB-231, 48 h.
The nature of experiment [11]: Cytotoxicity against human PC3 cells assessed as reduction in cell viability measured after 48 hrs by resazurin dye-based fluorometric analysis relative to control. The experiment is classed as functional, PC-3. More on the design: concentration or dose not given beside the values.
The nature of experiment [12]: Cytotoxicity against human PC3 cells assessed as reduction in cell viability measured after 48 hrs by resazurin dye-based fluorometric analysis. Format: functional. The settings on record: PC-3, 48 h.
The next experiment deals with Aspergillus fumigatus. Description: Antifungal activity against Aspergillus fumigatus isolate 1 measured after 48 hrs by broth dilution method. Format: functional. The settings on record: isolate 1, 48 h. (Dilution methods test growth across graded concentrations, often in twofold steps.)
Another experiment relates to Jurkat. Description: Induction of apoptosis in human Jurkat cells assessed as caspase3 activation. Format: functional, cell-based.

≈ marks a conversion by molar mass, not a printed value. Calls of active or inactive are those of the source. The rule behind the calls is not given here.

`COc1ccc(O)c(/C=c2\[nH]c(=O)/c(=C/c3nc[nH]c3C(C)(C)C)[nH]c2=O)c1.O=C(O)C(F)(F)F`: the EC50 in experiment [1] was 32 nM; in experiment [2], 31 nM; in experiment [3], more than 2000 nM. Further, the “inhibition (INH)” value in [4] is given as 25%. For the same compound, the “Ratio EC50” value in the experiment on HL-60 is 1.
On to `CC(C)(C)c1ocnc1/C=c1\[nH]c(=O)/c(=C/c2cccc(F)c2)[nH]c1=O`, for which the EC50 in [5] is 14 nM; in experiment [2], 14 nM; in [3] it was 16.3 to 17.1 nM; in [9], 13 nM; in [10], 24 nM. In experiment [6], this compound had an IC50 of 14 nM. Moreover, the outcome on Tubulin (Homo sapiens) [7] and at Tubulin (Homo sapiens) [8] was Active. Besides, the “Ratio EC50” value in the experiment with MES-SA worked out at 1.2; in the experiment on HL-60 it was 0.5.
Take `CC(C)(C)c1[nH]cnc1/C=c1\[nH]c(=O)/c(=C/c2cc(Cl)ccc2[N+](=O)[O-])[nH]c1=O.O=C(O)C(F)(F)F`: the figures for the EC50 in experiment [1], in experiment [2] and in experiment [3] were 28 nM, 19 nM and 99.7 to 110 nM, respectively. Besides, in experiment [4], the “inhibition (INH)” value is listed as 86%. The “Ratio EC50” value with HL-60 came out at 0.7.
For `CC(C)(C)c1[nH]cnc1/C=c1\[nH]c(=O)/c(=C/c2ccc3c(c2)OCO3)[nH]c1=O`, the Activity in experiment [11] is given as 95%. In addition, the EC50 in [3] is 82 to 87.3 nM. Also, the “inhibition (INH)” value in [4] came out at 84%.
Turning to `CC(C)(C)c1ocnc1/C=c1\[nH]c(=O)/c(=C/c2c(F)c(F)cc(F)c2F)[nH]c1=O`, the half-maximal effective concentration (EC50) in [5] is 14 nM; in experiment [12], 17 nM; in experiment [3], 11 to 14.8 nM; in experiment [9], more than 2000 nM; in [10], 42 nM. Also, the IC50 in experiment [6] was found to be 14 nM. The outcome at Tubulin (Homo sapiens) [7] and on Tubulin (Homo sapiens) [8] was Active. For the same compound, the “Ratio EC50” value in the experiment on MES-SA amounted to 1.1; in the experiment on HL-60, 0.4.
`CCC(C)n1ncn(-c2ccc(N3CCN(c4ccc(OCC5COC(Cn6cncn6)(c6ccc(Cl)cc6Cl)O5)cc4)CC3)cc2)c1=O` (configuration not stated) [ITRACONAZOLE] displayed an MIC against Aspergillus fumigatus of 1 µg/mL (≈ 1.42 µM).
With `CC(C)(C)c1[nH]cnc1/C=c1\[nH]c(=O)/c(=C/c2cc([N+](=O)[O-])ccc2Cl)[nH]c1=O`, in [11], the Activity stood at 100%. The concentration giving a half-maximal response (EC50) in experiment [3] was 51 to 53.4 nM. Further, the “inhibition (INH)” value in [4] was determined as 86%.
The like results for `Cc1ccsc1/C=c1\[nH]c(=O)/c(=C/c2nc[nH]c2C(C)(C)C)[nH]c1=O` were, in that order, 81%, 44 to 47 nM and 86%.
For the compound `COc1ccc(F)c(/C=c2\[nH]c(=O)/c(=C/c3nc[nH]c3C(C)(C)C)[nH]c2=O)c1.O=C(O)C(F)(F)F`, the EC50 in [3] was 19 to 20.3 nM. Moreover, the “inhibition (INH)” value in experiment [4] stood at 88%.
For `CC(C)(C)c1ocnc1/C=c1\[nH]c(=O)/c(=C/c2cc(F)cc(F)c2F)[nH]c1=O`, the EC50 in experiment [5] is 16 nM; in experiment [12], 21 nM; in experiment [2] it was 19 nM; in experiment [3] it was 11.4 to 17 nM; in [9], more than 2000 nM; in [10], 52 nM. This compound came in with an IC50 in [6] of 13 nM. Further, the outcome at Tubulin (Homo sapiens) [7] and on Tubulin (Homo sapiens) [8] was Active. Further, the “Ratio EC50” value in the experiment with MES-SA is recorded as 1; in the experiment with HL-60, 0.7.
On to `Cc1cccc(/C=c2\[nH]c(=O)/c(=C/c3nc[nH]c3C(C)(C)C)[nH]c2=O)c1C.O=C(O)C(F)(F)F`, for which the EC50 in experiment [3] lay within 2.96 to 3 nM. Further, the “inhibition (INH)” value in experiment [4] stood at 87%.
For the compound `CCc1ccc(/C=c2\[nH]c(=O)/c(=C/c3nc[nH]c3C(C)(C)C)[nH]c2=O)o1.O=C(O)C(F)(F)F`, the EC50 in experiment [3] is 2420 nM. Further, the “inhibition (INH)” value in experiment [4] is listed as 86%.
Consider `O=C1c2c(O)ccc(O)c2C(=O)c2c(NCCNCCO)ccc(NCCNCCO)c21` [MITOXANTRONE], for which the EC50 was 42 to 202 nM in experiment [1] and 1100 to 4870 nM in experiment [2]. Besides, the Activity entry with Jurkat was “Dose-dependent effect”.
In turn, `CC(C)(C)c1ocnc1/C=c1\[nH]c(=O)/c(=C/c2c(F)ccc(F)c2F)[nH]c1=O` showed an IC50 in experiment [6] of 27 nM. Moreover, the result at Tubulin (Homo sapiens) [7] and at Tubulin (Homo sapiens) [8] was Active. Besides, the “Ratio EC50” value with MES-SA was determined as 1.2; in the experiment on HL-60, 1.
With `COc1cc(OC)c(/C=c2\[nH]c(=O)/c(=C/c3nc[nH]c3C(C)(C)C)[nH]c2=O)c(OC)c1.O=C(O)C(F)(F)F`, the EC50 in experiment [3] is more than 2000 nM. Besides, the “inhibition (INH)” value in experiment [4] turned out to be 2%.

One may read the EC50 as the concentration giving half of the maximal effect. What is called IC50 is the concentration that inhibits the measured activity by half. In general, MIC refers to the least concentration at which growth counts as inhibited.

(Values after ChEMBL document CHEMBL3881525, “Analogs of dehydrophenylahistins and their therapeutic use” (2007).)
